Patent publication US10280166B2, “2-(1H-indazol-3-yl)-3H-imidazo[4,5-B]pyridine and therapeutic uses thereof” (Samumed, LLC, priority 2014, dated 2019)

Columns and labels:
[1] = system: primary human fibroblasts derived from IPF patients (LL29 cells); assay: Inhibition of fibrosis (αSMA) in TGF-β1 treated primary human fibroblasts from IPF patients; format: cell-based; conditions: Fibroblast, 96 h, TGF-β1 20 ng/mL, 4 days, % αSMA positive cells
From the text: The above synthesized compounds were screened using primary human fibroblasts (derived from IPF patients) treated with TGF-β1 to determine their ability to inhibit the fibrotic process.
Primary human fibroblasts derived from IPF patients (LL29 cells) [^1Xiaoqiu Liu, et.al., “Fibrotic Lung Fibroblasts Show Blunted Inhibition by cAMP Due to Deficient cAMP Response Element-Binding Protein Phosphorylation”, Journal of Pharmacology and Experimental Therapeutics (2005), 315(2), 678-687; ^2Watts, K. L., et.al., “RhoA signaling modulates cyclin D1 expression in human lung fibroblasts; implications for idiopathic pulmonary fibrosis”, Respiratory Research (2006), 7(1), 88] were obtained from American Type Culture Collection (ATCC) and expanded in F12 medium supplemented with 15% Fetal Bovine Serum and Penicillin/Streptomycin.
Each compound was dissolved in DMSO as a 10 mM stock and used to prepare compound source plates. Serial dilution (1:2, 11-point dose-response curves from 10 μM to 1.87 nM) and compound transfer was performed using the ECHO 550 (Labcyte, Sunnyvale, Calif.) into 384-well clear bottom assay plates (Greiner Bio-One) with appropriate DMSO backfill for a final DMSO concentration of 0.1%. LL29 cells were plated at 1,500 cells/well in 80 μl/well F12 medium supplemented with 1% Fetal Bovine Serum. One hour after addition of the cells, TGF-β1 (Peprotech; 20 ng/mL) was added to the plates to induce fibrosis (ref. 1 and 2 above). Wells treated with TGF-β1 and containing DMSO were used as controls. Cells were incubated at 37° C. and 5% CO2 for 4 days. Following incubation for 4 days, SYTOX green nucleic acid stain (Life Technologies [Thermo Fisher Scientific]) was added to the wells at a final concentration of 1 uM and incubated at room temperature for 30 min. Cells were then fixed using 4% formaldehyde (Electron Microscopy Sciences), washed 3 times with PBS followed by blocking and permeabilization using 3% Bovine Serum Albumin (BSA; Sigma) and 0.3% Triton X-100 (Sigma) in PBS. Cells were then stained with antibody specific to α-smooth muscle actin (αSMA; Abcam) (ref. 1 and 2 above) in 3% Bovine Serum Albumin (BSA; Sigma) and 0.3% Triton X-100 (Sigma) in PBS, and incubated overnight at 4° C. Cells were then washed 3 times with PBS, followed by incubation with Alexa Flor-647 conjugated secondary antibody (Life Technologies [Thermo Fisher Scientific]) and DAPI at room temperature for 1 hour. Cells were then washed 3 times with PBS and plates were sealed for imaging. αSMA staining was imaged by excitation at 630 nm and emission at 665 nm and quantified using the Compartmental Analysis program on the CellInsight CX5 (Thermo Scientific). Dead or apoptotic cells were excluded from analysis based on positive SYTOX green staining. % of total cells positive for αSMA were counted in each well and normalized to the average of 11 wells treated with TGF-β1 on the same plate using Dotmatics' Studies Software. The normalized averages (fold change over untreated) of 3 replicate wells for each compound concentration were used to create dose-responses curves and EC50 values were calculated using non-linear regression curve fit in the Dotmatics' Studies Software. The EC50 values are reported.

[2] = system: Wnt activity (SW480 colon carcinoma cells stably expressing the Sp5-Luc reporter gene); assay: Sp5-Luc reporter gene screening assay for Wnt activity in SW480 cells; format: cell-based; conditions: Homo sapiens, 42 h incubation, luminescence
Method in brief: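 SW480 cells stably carrying an Sp5 promoter (eight TCF/LEF sites)-luciferase reporter were plated overnight in 10% FCS medium. BrightGlo luminescence was normalised to DMSO wells, and IC50 was obtained by four-parameter fit.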

Compound: CN1CCN(c2ccnc3[nH]c(-c4n[nH]c5ccc(-c6cncnc6)cc45)nc23)CC1 [Compound 234, 7-(4-Methylpiperazin-1-yl)-2-(5-(pyrimidin-5-yl)-1H-indazol-3-yl)-3H-imidazo[4,5-b]pyridine]
- EC50 [1]: 0.434 nM
- IC50 [2]: 795 nM

Compound: c1cncc(-c2ccc3[nH]nc(-c4nc5cccnc5[nH]4)c3c2)c1 [Compound 238, 2-(5-(Pyridin-3-yl)-1H-indazol-3-yl)-3H-imidazo[4,5-b]pyridine]
- EC50 [1]: 0.013 nM
- IC50 [2]: 28.8 nM

Compound: Cc1ccncc1-c1ccc2[nH]nc(-c3nc4cccnc4[nH]3)c2c1 [Compound 239, 2-(5-(4-Methylpyridin-3-yl)-1H-indazol-3-yl)-3H-imidazo[4,5-b]pyridine]
- EC50 [1]: 0.171 nM
- IC50 [2]: 4100 nM

Compound: CN(C)Cc1cncc(-c2ccc3[nH]nc(-c4nc5cccnc5[nH]4)c3c2)c1 [Compound 247, 1-(5-(3-(3H-Imidazo[4,5-b]pyridin-2-yl)-1H-indazol-5-yl)pyridin-3-yl)-N,N-dimethylmethanamine]
- EC50 [1]: 0.184 nM
- IC50 [2]: 77 nM

Compound: CC(C)(C)CC(=O)Nc1cncc(-c2ccc3[nH]nc(-c4nc5cccnc5[nH]4)c3c2)c1 [Compound 250, N-(5-(3-(3H-Imidazo[4,5-b]pyridin-2-yl)-1H-indazol-5-yl)pyridin-3-yl)-3,3-dimethylbutanamide]
- EC50 [1]: 2.6 nM
- IC50 [2]: 124 nM

Compound: O=C(Nc1cncc(-c2ccc3[nH]nc(-c4nc5cccnc5[nH]4)c3c2)c1)C1CCCCC1 [Compound 256, N-(5-(3-(3H-Imidazo[4,5-b]pyridin-2-yl)-1H-indazol-5-yl)pyridin-3-yl)cyclohexanecarboxamide]
- EC50 [1]: 0.401 nM
- IC50 [2]: 66.3 nM

Compound: Cc1ccncc1-c1ccc2[nH]nc(-c3nc4c(-c5ccsc5)ccnc4[nH]3)c2c1 [Compound 265, 2-(5-(4-Methylpyridin-3-yl)-1H-indazol-3-yl)-7-(thiophen-3-yl)-3H-imidazo[4,5-b]pyridine]
- EC50 [1]: 0.131 nM
- IC50 [2]: 9.4 nM

Compound: CC(C)C(=O)Nc1cncc(-c2ccc3[nH]nc(-c4nc5c(-c6ccsc6)ccnc5[nH]4)c3c2)c1 [Compound 269, N-(5-(3-(7-(Thiophen-3-yl)-3H-imidazo[4,5-b]pyridin-2-yl)-1H-indazol-5-yl)pyridin-3-yl)isobutyramide]
- EC50 [1]: 9.99 nM
- IC50 [2]: 5.1 nM

Compound: O=C(Cc1ccccc1)Nc1cncc(-c2ccc3[nH]nc(-c4nc5c(-c6ccsc6)ccnc5[nH]4)c3c2)c1 [Compound 270, 2-Phenyl-N-(5-(3-(7-(thiophen-3-yl)-3H-imidazo[4,5-b]pyridin-2-yl)-1H-indazol-5-yl)pyridin-3-yl)acetamide]
- EC50 [1]: 0.01 nM
- IC50 [2]: 16.3 nM

Compound: O=C(Nc1cncc(-c2ccc3[nH]nc(-c4nc5c(-c6ccsc6)ccnc5[nH]4)c3c2)c1)c1ccccc1 [Compound 271, N-(5-(3-(7-(Thiophen-3-yl)-3H-imidazo[4,5-b]pyridin-2-yl)-1H-indazol-5-yl)pyridin-3-yl)benzamide]
- EC50 [1]: 0.068 nM
- IC50 [2]: 8.4 nM

Compound: O=C(Nc1cncc(-c2ccc3[nH]nc(-c4nc5c(-c6ccsc6)ccnc5[nH]4)c3c2)c1)C1CC1 [Compound 279, N-(5-(3-(7-(Thiophen-3-yl)-3H-imidazo[4,5-b]pyridin-2-yl)-1H-indazol-5-yl)pyridin-3-yl)cyclopropanecarboxamide]
- EC50 [1]: 0.306 nM
- IC50 [2]: 5.2 nM

Compound: O=C(Nc1cncc(-c2ccc3[nH]nc(-c4nc5c(-c6ccsc6)ccnc5[nH]4)c3c2)c1)C1CCCC1 [Compound 281, N-(5-(3-(7-(Thiophen-3-yl)-3H-imidazo[4,5-b]pyridin-2-yl)-1H-indazol-5-yl)pyridin-3-yl)cyclopentanecarboxamide]
- EC50 [1]: 0.359 nM
- IC50 [2]: 9.8 nM

Compound: c1ccc(CNCc2cncc(-c3ccc4[nH]nc(-c5nc6c(-c7ccsc7)ccnc6[nH]5)c4c3)c2)cc1 [Compound 283, N-Benzyl-1-(5-(3-(7-(thiophen-3-yl)-3H-imidazo[4,5-b]pyridin-2-yl)-1H-indazol-5-yl)pyridin-3-yl)methanamine]
- EC50 [1]: 0.605 nM
- IC50 [2]: 137 nM

Compound: CCNCc1cncc(-c2ccc3[nH]nc(-c4nc5c(-c6ccoc6)ccnc5[nH]4)c3c2)c1 [Compound 292, N-((5-(3-(7-(Furan-3-yl)-3H-imidazo[4,5-b]pyridin-2-yl)-1H-indazol-5-yl)pyridin-3-yl)methyl)ethanamine]
- EC50 [1]: 0.009 nM
- IC50 [2]: 47.7 nM

Compound: CC(C)C(=O)Nc1cncc(-c2ccc3[nH]nc(-c4nc5c(-c6ccoc6)ccnc5[nH]4)c3c2)c1 [Compound 295, N-(5-(3-(7-(Furan-3-yl)-3H-imidazo[4,5-b]pyridin-2-yl)-1H-indazol-5-yl)pyridin-3-yl)isobutyramide]
- EC50 [1]: 0.405 nM
- IC50 [2]: 5.1 nM

Compound: CCCCC(=O)Nc1cncc(-c2ccc3[nH]nc(-c4nc5c(-c6ccoc6)ccnc5[nH]4)c3c2)c1 [Compound 304, N-(5-(3-(7-(Furan-3-yl)-3H-imidazo[4,5-b]pyridin-2-yl)-1H-indazol-5-yl)pyridin-3-yl)pentanamide]
- EC50 [1]: 0.079 nM
- IC50 [2]: 6 nM

Compound: O=C(Nc1cncc(-c2ccc3[nH]nc(-c4nc5c(-c6ccoc6)ccnc5[nH]4)c3c2)c1)C1CCC1 [Compound 306, N-(5-(3-(7-(Furan-3-yl)-3H-imidazo[4,5-b]pyridin-2-yl)-1H-indazol-5-yl)pyridin-3-yl)cyclobutanecarboxamide]
- EC50 [1]: 0.527 nM
- IC50 [2]: 6.7 nM

Compound: c1cc(-c2ccoc2)c2nc(-c3n[nH]c4ccc(-c5cncc(CNCC6CCCC6)c5)cc34)[nH]c2n1 [Compound 310, 1-Cyclopentyl-N-((5-(3-(7-(furan-3-yl)-3H-imidazo[4,5-b]pyridin-2-yl)-1H-indazol-5-yl)pyridin-3-yl)methyl)methanamine]
- EC50 [1]: 9.99 nM
- IC50 [2]: 1270 nM

Compound: CCC(=O)Nc1cncc(-c2ccc3[nH]nc(-c4nc5c(-c6cccs6)ccnc5[nH]4)c3c2)c1 [Compound 313, N-(5-(3-(7-(Thiophen-2-yl)-3H-imidazo[4,5-b]pyridin-2-yl)-1H-indazol-5-yl)pyridin-3-yl)propionamide]
- EC50 [1]: 0.027 nM
- IC50 [2]: 2 nM

Compound: CC(C)(C)C(=O)Nc1cncc(-c2ccc3[nH]nc(-c4nc5c(-c6cccs6)ccnc5[nH]4)c3c2)c1 [Compound 320, N-(5-(3-(7-(Thiophen-2-yl)-3H-imidazo[4,5-b]pyridin-2-yl)-1H-indazol-5-yl)pyridin-3-yl)pivalamide]
- EC50 [1]: 0.016 nM
- IC50 [2]: 8.8 nM

Compound: CN(C)Cc1cncc(-c2ccc3[nH]nc(-c4nc5c(-c6cccs6)ccnc5[nH]4)c3c2)c1 [Compound 325, N,N-Dimethyl-1-(5-(3-(7-(thiophen-2-yl)-3H-imidazo[4,5-b]pyridin-2-yl)-1H-indazol-5-yl)pyridin-3-yl)methanamine]
- EC50 [1]: 0.04 nM
- IC50 [2]: 932 nM

Compound: O=C(Nc1cncc(-c2ccc3[nH]nc(-c4nc5c(-c6cccs6)ccnc5[nH]4)c3c2)c1)C1CC1 [Compound 331, N-(5-(3-(7-(Thiophen-2-yl)-3H-imidazo[4,5-b]pyridin-2-yl)-1H-indazol-5-yl)pyridin-3-yl)cyclopropanecarboxamide]
- EC50 [1]: 0.155 nM
- IC50 [2]: 34.7 nM

Compound: O=C(Nc1cncc(-c2ccc3[nH]nc(-c4nc5c(-c6cccs6)ccnc5[nH]4)c3c2)c1)C1CCCC1 [Compound 333, N-(5-(3-(7-(Thiophen-2-yl)-3H-imidazo[4,5-b]pyridin-2-yl)-1H-indazol-5-yl)pyridin-3-yl)cyclopentanecarboxamide]
- EC50 [1]: 0.009 nM
- IC50 [2]: 6.3 nM
